Test results from patent publication US6737383B1, “Herbicidal oxadiazolidines” (priority 1999, dated 2004).

Legend:
bedstraw = experiment: Test B pre/postemergence bedstraw; format: in vivo, Galium aparine
How it was run: (§1)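 Response is a visual 0-to-10 score relative to untreated plants, where 0 means no effect and 10 means complete control, taken twelve to sixteen days after application. Treatments went onto soil at planting and onto foliage of 1- to 4-leaf plants, using a surfactant-containing non-phytotoxic solvent.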

blackgrass = experiment: Test B pre/postemergence blackgrass; format: in vivo, Alopecurus myosuroides
How it was run: as §1

surinam grass = experiment: Test B pre/postemergence surinam grass; format: in vivo, Brachiaria decumbens
How it was run: as §1

cocklebur = experiment: Test B pre/postemergence cocklebur; format: in vivo, Xanthium strumarium
How it was run: as §1

corn = experiment: Test B pre/postemergence corn; format: in vivo, Zea mays
How it was run: as §1

crabgrass = experiment: Test B pre/postemergence crabgrass; format: in vivo, Digitaria sanguinalis
How it was run: as §1

giant foxtail = experiment: Test B pre/postemergence giant foxtail; format: in vivo, Setaria faberii
How it was run: as §1

morningglory = experiment: Test B pre/postemergence morningglory; format: in vivo, Ipomoea hederacea
How it was run: as §1

pigweed = experiment: Test B pre/postemergence pigweed; format: in vivo, Amaranthus retroflexus
How it was run: as §1

rape = experiment: Test B pre/postemergence rape; format: in vivo, Brassica napus
How it was run: as §1

soybean = experiment: Test B pre/postemergence soybean; format: in vivo, Glycine max
How it was run: as §1

sugar beet = experiment: Test B pre/postemergence sugar beet; format: in vivo, Beta vulgaris
How it was run: as §1

velvetleaf = experiment: Test B pre/postemergence velvetleaf; format: in vivo, Abutilon theophrasti
How it was run: as §1

wheat = experiment: Test B pre/postemergence wheat; format: in vivo, Triticum aestivum
How it was run: as §1

wild oat = experiment: Test B pre/postemergence wild oat; format: in vivo, Avena fatua
How it was run: as §1

purple nutsedge = experiment: Test B pre/postemergence purple nutsedge; format: in vivo, Cyperus rotundus
How it was run: as §1

[1] = Postemergence, Rate 62 g/ha, scale 0 to 10, 0 is no effect, 10 is complete control
[2] = Postemergence, Rate 125 g/ha, scale of 0 to 10 where 0 is no effect and 10 is complete control
[3] = Preemergence, Rate 125 g/ha, scale of 0 to 10 where 0 is no effect and 10 is complete control
[4] = Preemergence, Rate 250 g/ha, scale 0 (no effect) to 10 (complete control)
[5] = Rate 250 g/ha, Postemergence, scale 0 to 10, 0 is no effect, 10 is complete control
[6] = Rate 500 g/ha, Postemergence, scale 0 to 10, 0 is no effect, 10 is complete control
[7] = Rate 500 g/ha, Preemergence, scale 0 to 10 (0 no effect, 10 complete control)
[8] = Rate 62 g/ha, Preemergence, scale 0 to 10

## CC(C)N(C(=O)n1oc(=O)n(C[C@H](C)Cl)c1=O)c1ccc(Cl)cc1 [Compound 748]
bedstraw; [1]
  Plant response rating, Bedstraw: 5
bedstraw; [2]
  Bedstraw plant response rating: 6
bedstraw; [3]
  Plant response rating, Bedstraw: 0
bedstraw; [4]
  Bedstraw plant response rating: 0
bedstraw; [5]
  Bedstraw plant response rating: 9
bedstraw; [6]
  Bedstraw plant response rating: 9
bedstraw; [7]
  Bedstraw plant response rating: 0
blackgrass; [1]
  Plant response rating, Blackgrass: 5
blackgrass; [2]
  Blackgrass plant response rating: 6
blackgrass; [3]
  Plant response rating, Blackgrass: 3
blackgrass; [8]
  Blackgrass plant response rating: 0
blackgrass; [5]
  Blackgrass plant response rating: 7
blackgrass; [6]
  Blackgrass plant response rating: 8
blackgrass; [7]
  Blackgrass plant response rating: 9
Surinam grass; [1]
  Plant response rating, B. signalgrass: 2
Surinam grass; [2]
  B. signalgrass plant response rating: 2
Surinam grass; Preemergence, Rate 62 g/ha, scale of 0 to 10 where 0 is no effect and 10 is complete control
  B. signalgrass plant response rating: 0
Surinam grass; [3]
  Plant response rating, B. signalgrass: 3
Surinam grass; [4]
  B. signalgrass plant response rating: 3
Surinam grass; [5]
  B. signalgrass plant response rating: 4
Surinam grass; [6]
  B. signalgrass plant response rating: 7
Surinam grass; [7]
  B. signalgrass plant response rating: 10
cocklebur; [1]
  Plant response rating, Cocklebur: 0
cocklebur; [2]
  Cocklebur plant response rating: 0
cocklebur; [3]
  Plant response rating, Cocklebur: 0
cocklebur; [4]
  Cocklebur plant response rating: 0
cocklebur; [8]
  Cocklebur plant response rating: 0
cocklebur; [5]
  Cocklebur plant response rating: 0
cocklebur; [7]
  Cocklebur plant response rating: 0
corn; [1]
  Plant response rating, Corn: 0
corn; [2]
  Corn plant response rating: 0
corn; [3]
  Plant response rating, Corn: 0
corn; [4]
  Corn plant response rating: 0
corn; [8]
  Corn plant response rating: 0
corn; [5]
  Corn plant response rating: 0
corn; [6]
  Corn plant response rating: 0
corn; [7]
  Corn plant response rating: 4
crabgrass; [1]
  Plant response rating, Crabgrass: 2
crabgrass; [2]
  Crabgrass plant response rating: 3
crabgrass; [3]
  Plant response rating, Crabgrass: 10
crabgrass; [4]
  Crabgrass plant response rating: 10
crabgrass; [8]
  Crabgrass plant response rating: 9
crabgrass; [5]
  Crabgrass plant response rating: 8
crabgrass; [6]
  Crabgrass plant response rating: 9
crabgrass; [7]
  Crabgrass plant response rating: 10
Giant foxtail; [1]
  Plant response rating, Giant foxtail: 2
Giant foxtail; [2]
  Giant foxtail plant response rating: 6
Giant foxtail; [3]
  Plant response rating, Giant foxtail: 10
Giant foxtail; [4]
  Giant foxtail plant response rating: 10
Giant foxtail; [8]
  Giant foxtail plant response rating: 9
Giant foxtail; [5]
  Giant foxtail plant response rating: 8
Giant foxtail; [6]
  Giant foxtail plant response rating: 9
Giant foxtail; [7]
  Giant foxtail plant response rating: 10
morningglory; [1]
  Plant response rating, Morningglory: 0
morningglory; [2]
  Morningglory plant response rating: 6
morningglory; [3]
  Plant response rating, Morningglory: 0
morningglory; [4]
  Morningglory plant response rating: 0
morningglory; [8]
  Morningglory plant response rating: 0
morningglory; [5]
  Morningglory plant response rating: 6
morningglory; [6]
  Morningglory plant response rating: 7
morningglory; [7]
  Morningglory plant response rating: 0
pigweed; [1]
  Plant response rating, Redroot pigweed: 2
pigweed; [2]
  Redroot pigweed plant response rating: 4
pigweed; [3]
  Plant response rating, Redroot pigweed: 10
pigweed; [4]
  Redroot pigweed plant response rating: 10
pigweed; [8]
  Redroot pigweed plant response rating: 4
pigweed; [5]
  Redroot pigweed plant response rating: 6
pigweed; [6]
  Redroot pigweed plant response rating: 8
pigweed; [7]
  Redroot pigweed plant response rating: 10
rape; [1]
  Plant response rating, Rape: 0
rape; [2]
  Rape plant response rating: 3
rape; [3]
  Plant response rating, Rape: 0
rape; [4]
  Rape plant response rating: 0
rape; [8]
  Rape plant response rating: 0
rape; [5]
  Rape plant response rating: 6
rape; [6]
  Rape plant response rating: 7
rape; [7]
  Rape plant response rating: 7
soybean; [1]
  Plant response rating, Soybean: 3
soybean; [2]
  Soybean plant response rating: 3
soybean; [3]
  Plant response rating, Soybean: 0
soybean; [4]
  Soybean plant response rating: 0
soybean; [8]
  Soybean plant response rating: 0
soybean; [5]
  Soybean plant response rating: 4
soybean; [6]
  Soybean plant response rating: 5
soybean; [7]
  Soybean plant response rating: 0
Sugar beet; [1]
  Plant response rating, Sugarbeets: 0
Sugar beet; [2]
  Sugarbeets plant response rating: 2
Sugar beet; [3]
  Plant response rating, Sugarbeets: 0
Sugar beet; [4]
  Sugarbeets plant response rating: 2
Sugar beet; [8]
  Sugarbeets plant response rating: 0
Sugar beet; [5]
  Sugarbeets plant response rating: 6
Sugar beet; [6]
  Sugarbeets plant response rating: 7
Sugar beet; [7]
  Sugarbeets plant response rating: 7
velvetleaf; [1]
  Plant response rating, Velvetleaf: 0
velvetleaf; [2]
  Velvetleaf plant response rating: 0
velvetleaf; [3]
  Plant response rating, Velvetleaf: 0
velvetleaf; [4]
  Velvetleaf plant response rating: 0
velvetleaf; [8]
  Velvetleaf plant response rating: 0
velvetleaf; [5]
  Velvetleaf plant response rating: 0
velvetleaf; [6]
  Velvetleaf plant response rating: 4
velvetleaf; [7]
  Velvetleaf plant response rating: 0
wheat; [1]
  Plant response rating, Wheat: 0
wheat; [2]
  Wheat plant response rating: 0
wheat; [3]
  Plant response rating, Wheat: 0
wheat; [4]
  Wheat plant response rating: 0
wheat; [8]
  Wheat plant response rating: 0
wheat; [5]
  Wheat plant response rating: 0
wheat; [7]
  Wheat plant response rating: 5
Wild oat; [1]
  Plant response rating, Wild oats: 0
Wild oat; [2]
  Wild oats plant response rating: 0
Wild oat; [3]
  Plant response rating, Wild oats: 2
Wild oat; [4]
  Wild oats plant response rating: 2
Wild oat; [8]
  Wild oats plant response rating: 0
Wild oat; [5]
  Wild oats plant response rating: 0
Wild oat; [6]
  Wild oats plant response rating: 0
Wild oat; [7]
  Wild oats plant response rating: 8
Purple nutsedge; [1]
  Plant response rating, Nutsedge: 0
Purple nutsedge; [2]
  Nutsedge plant response rating: 0
Purple nutsedge; [3]
  Plant response rating, Nutsedge: 0
Purple nutsedge; [4]
  Nutsedge plant response rating: 0
Purple nutsedge; [8]
  Nutsedge plant response rating: 0
Purple nutsedge; [5]
  Nutsedge plant response rating: 0
Purple nutsedge; [6]
  Nutsedge plant response rating: 0
Purple nutsedge; [7]
  Nutsedge plant response rating: 2
